Tested on: HCV replicon
Experiment: HCV replicon luciferase assay
Format: cell-based
Details: Hepatitis C virus, Huh-7, 72 h
Description: The cell lines used to evaluate compounds consist of a human hepatocyte derived cell line (Huh-7) that constitutively expresses a genotype 1b (Con-1) HCV replicon or a genotype 1b (Con-1) HCV replicon with an asparagine replacing the cysteine at amino acid 316, or a genotype 2a (JFH-1) replicon, containing a Renilla luciferase reporter gene. These cells were maintained in Dulbecco's modified Eagle medium (DMEM) containing 10% FBS, 100 U/mL penicillin/streptomycin and 1.0 mg/mL G418.
To evaluate compound efficacy, titrated compounds were transferred to sterile 384-well tissue culture treated plates, and the plates were seeded with HCV replicon cells (50 μL at a density of 2.4×10^3 cells/well) in DMEM containing 4% FBS (final DMSO concentration at 0.5%). After 3 days incubation at 37° C., cells were analyzed for Renilla Luciferase activity using the EnduRen substrate (Promega cat #E6485) according to the manufacturer's directions. Briefly, the EnduRen substrate was diluted in DMEM and then added to the plates to a final concentration of 7.5 μM. The plates were incubated for at least 1 h at 37° C. then read on a Viewlux Imager (PerkinElmer) using a luminescence program. The 50% effective concentration (EC50) was calculated using the four-parameter logistic formula noted above.
Compound EC50 data is expressed as A: <100 nM; B=100-1000 nM; C>1000 nM).

| Compound | EC50 |
| --- | --- |
| CCN(CC)c1cc2oc(-c3ccc(F)cc3)c(C(=O)NC)c2cc1-c1cccc(C(=O)N2CC(F)(F)C2)c1 [Compound 1001] | 0.0454 µM |
| CCNc1cc2oc(-c3ccc(F)cc3)c(C(=O)NC)c2cc1-c1cccc(C(=O)N2CCNC(C#N)C2)c1 (stereo not shown) [Compound 2001] | 0.1 to 1 µM |
| CCN(c1cc2oc(-c3ccc(F)cc3)c(C(=O)NC)c2cc1-c1cccc(C(=O)N2CCN(C(=O)OC(C)(C)C)C[C@@H]2C#N)c1)S(C)(=O)=O [Compound 3001] | < 0.1 µM |
| CCN(c1cc2oc(-c3ccc(F)cc3)c(C(=O)NC)c2cc1-c1cccc(C(=O)N2CCN(C(=O)OC(C)(C)C)C[C@H]2C#N)c1)S(C)(=O)=O [Compound 3002] | < 0.1 µM |
| CCN(c1cc2oc(-c3ccc(F)cc3)c(C(=O)NC)c2cc1-c1cccc(C(=O)N2CCN(S(C)(=O)=O)C(C#N)C2)c1)S(C)(=O)=O (stereo not shown) [Compound 3003] | 0.0252 µM |
| CNC(=O)c1c(-c2ccc(F)cc2)oc2cc(N(CCF)S(C)(=O)=O)c(-c3cccc(C(=O)N4CCN(C(=O)C(F)(F)F)CC4)c3)cc12 [Compound 4001] | > 1 µM |
| CNC(=O)c1c(-c2ccc(F)cc2)oc2cc(N(CCF)S(C)(=O)=O)c(-c3cccc(C(=O)N4CCN(C5CC5)CC4)c3)cc12 [Compound 4002] | < 0.1 µM |
| CNC(=O)c1c(-c2ccc(F)cc2)oc2cc(N(CCF)S(C)(=O)=O)c(-c3cccc(C(=O)N4CCN(c5ncccn5)CC4)c3)cc12 [Compound 4003] | < 0.1 µM |
| CNC(=O)c1c(-c2ccc(F)cc2)oc2cc(N(CCF)S(C)(=O)=O)c(-c3cccc(C(=O)N4CCN(C(=O)N5CCOCC5)CC4)c3)cc12 [Compound 4004] | 1.69 µM |
| CNC(=O)c1c(-c2ccc(F)cc2)oc2cc(N(CCF)S(C)(=O)=O)c(-c3cccc(C(=O)N4CCN(C(=O)OC(C)(C)C)CC4CC(=O)OC)c3)cc12 (stereo not shown) [Compound 4005] | < 0.1 µM |
| CNC(=O)c1c(-c2ccc(F)cc2)oc2cc(N(CCF)S(C)(=O)=O)c(-c3cccc(C(=O)N4CCN(/C(=N/C#N)c5ccccc5)CC4)c3)cc12 [Compound 4006] | 0.1 to 1 µM |
| CNC(=O)c1c(-c2ccc(F)cc2)oc2cc(N(CCF)S(C)(=O)=O)c(-c3cccc(C(=O)N4CCN(C(=C(C#N)C#N)c5ccccc5)CC4)c3)cc12 [Compound 4007] | < 0.1 µM |
| CNC(=O)c1c(-c2ccc(F)cc2)oc2cc(N(CCF)S(C)(=O)=O)c(-c3cccc(C(=O)N4CCN(c5nnnn5-c5ccccc5)CC4)c3)cc12 [Compound 4008] | 0.107 µM |
| CNC(=O)c1c(-c2ccc(F)cc2)oc2cc(N(CCF)S(C)(=O)=O)c(-c3cccc(C(=O)N4CCN(c5nnnn5-c5ccccc5)C[C@@H]4C)c3)cc12 [Compound 4009] | < 0.1 µM |
| CNC(=O)c1c(-c2ccc(F)cc2)oc2cc(N(CCF)S(C)(=O)=O)c(-c3cccc(C(=O)N4CCN(c5nnnn5-c5ccccc5)[C@H](C)C4)c3)cc12 [Compound 4010] | < 0.1 µM |
| CNC(=O)c1c(-c2ccc(F)cc2)oc2cc(N(CCF)S(C)(=O)=O)c(-c3cccc(C(=O)N4CCC(=C(c5ccccc5)c5ccccc5)CC4)c3)cc12 [Compound 4011] | < 0.1 µM |

| Compound | EC50 |
| --- | --- |
| CNC(=O)c1c(-c2ccc(F)cc2)oc2cc(N(CCF)S(C)(=O)=O)c(-c3cccc(C(=O)N4CCC(=C(c5ccccc5)c5nnc(C)o5)CC4)c3)cc12 [Compound 4012] | 0.0271 µM |
| CNC(=O)c1c(-c2ccc(F)cc2)oc2cc(N(CCF)S(C)(=O)=O)c(-c3cccc(C(=O)N4CCC(=C(C#N)c5ccccc5)CC4)c3)cc12 [Compound 4013] | < 0.1 µM |
| CNC(=O)c1c(-c2ccc(F)cc2)oc2cc(N(CCF)S(C)(=O)=O)c(-c3cccc(C(=O)N4CCC(=C(C#N)c5ccccn5)CC4)c3)cc12 [Compound 4014] | < 0.1 µM |
| CNC(=O)c1c(-c2ccc(F)cc2)oc2cc(N(CCF)S(C)(=O)=O)c(-c3cccc(C(=O)N4CCCC4C(F)(F)F)c3)cc12 (stereo not shown) [Compound 4015] | < 0.1 µM |
| CNC(=O)c1c(-c2ccc(F)cc2)oc2cc(N(CCF)S(C)(=O)=O)c(-c3cccc(C(=O)N4CCCC4c4ccc(N(C)C)cc4)c3)cc12 (stereo not shown) [Compound 4016] | 0.0848 µM |
| CNC(=O)c1c(-c2ccc(F)cc2)oc2cc(N(CCF)S(C)(=O)=O)c(-c3cccc(C(=O)N4CCC[C@@H]4C(N)=O)c3)cc12 [Compound 4017] | > 1 µM |
| CNC(=O)c1c(-c2ccc(F)cc2)oc2cc(N(CCF)S(C)(=O)=O)c(-c3cccc(C(=O)N4CC(O)C[C@H]4C(=O)OCc4ccccc4)c3)cc12 (stereo partly shown) [Compound 4018] | 0.1 to 1 µM |
| CNC(=O)c1c(-c2ccc(F)cc2)oc2cc(N(CCF)S(C)(=O)=O)c(-c3cccc(C(=O)N4CC(F)(F)C[C@H]4C(N)=O)c3)cc12 [Compound 4019] | > 1 µM |
| CNC(=O)c1c(-c2ccc(F)cc2)oc2cc(N(CCF)S(C)(=O)=O)c(-c3cccc(C(=O)N4CC[C@H](F)C4)c3)cc12 [Compound 4020] | 0.045 µM |
| CNC(=O)c1c(-c2ccc(F)cc2)oc2cc(N(CCF)S(C)(=O)=O)c(-c3cccc(C(=O)N4CC[C@@H](C#N)C4)c3)cc12 [Compound 4021] | > 1 µM |
| CNC(=O)c1c(-c2ccc(F)cc2)oc2cc(N(CCF)S(C)(=O)=O)c(-c3cccc(C(=O)N4CCC(NC(=O)OC(C)(C)C)(C(F)(F)F)C4)c3)cc12 (stereo not shown) [Compound 4022] | < 0.1 µM |
| CNC(=O)c1c(-c2ccc(F)cc2)oc2cc(N(CCF)S(C)(=O)=O)c(-c3cccc(C(=O)N4CCCC4c4nccs4)c3)cc12 (stereo not shown) [Compound 4023] | < 0.1 µM |
| CNC(=O)c1c(-c2ccc(F)cc2)oc2cc(N(CCF)S(C)(=O)=O)c(-c3cccc(C(=O)N4CC[C@@H](F)C4)c3)cc12 [Compound 4024] | 0.0765 µM |
| CNC(=O)c1c(-c2ccc(F)cc2)oc2cc(N(CCF)S(C)(=O)=O)c(-c3cccc(C(=O)N4CC(F)(F)C(F)(F)C4)c3)cc12 [Compound 4025] | < 0.1 µM |
| CNC(=O)c1c(-c2ccc(F)cc2)oc2cc(N(CCF)S(C)(=O)=O)c(-c3cccc(C(=O)N4CCNC(=O)C45CCCC5)c3)cc12 [Compound 4026] | < 0.1 µM |
| CCOC(=O)CC1C(=O)NCCN1C(=O)c1cccc(-c2cc3c(C(=O)NC)c(-c4ccc(F)cc4)oc3cc2N(CCF)S(C)(=O)=O)c1 (stereo not shown) [Compound 4027] | > 1 µM |

Tested on: HCV
Experiment: not given
Details: combination therapy; cited from earlier work

| Compound | sustained efficacy |
| --- | --- |
| alpha-interferon and ribavirin | 40 % of patients |

Tested on: HCV
Experiment: not given
Details: extended dosing of the combination regimens; cited from earlier work

| Compound | hepatic toxicity |
| --- | --- |
| CNC(=O)c1c(-c2ccc(F)cc2)oc2cc(N(CCO)S(C)(=O)=O)c(C3CC3)cc12 [HCV-796] | hepatic toxicity observed |

Reference: patent publication US10087167B2, “Benzofurans substituted with secondary benzamide as HCV inhibitors” (priority 2015, dated 2018)
